For 24 compounds, IC50 results are on record in patent publication US20240199546A1, “INHIBITORS OF SOLUTE CARRIER FAMILY 6A MEMBER 19 (SLC6A19) AND METHODS OF USE THEREOF” (Maze Therapeutics, Inc., priority 2022, published 2024).

In assay [1] the target is T1, human SLC6A19 and TMEM27 (Homo sapiens, UniProt Q695T7).
T1 construct: expressed in transfected cells
T1 sequence (Q695T7 1-634): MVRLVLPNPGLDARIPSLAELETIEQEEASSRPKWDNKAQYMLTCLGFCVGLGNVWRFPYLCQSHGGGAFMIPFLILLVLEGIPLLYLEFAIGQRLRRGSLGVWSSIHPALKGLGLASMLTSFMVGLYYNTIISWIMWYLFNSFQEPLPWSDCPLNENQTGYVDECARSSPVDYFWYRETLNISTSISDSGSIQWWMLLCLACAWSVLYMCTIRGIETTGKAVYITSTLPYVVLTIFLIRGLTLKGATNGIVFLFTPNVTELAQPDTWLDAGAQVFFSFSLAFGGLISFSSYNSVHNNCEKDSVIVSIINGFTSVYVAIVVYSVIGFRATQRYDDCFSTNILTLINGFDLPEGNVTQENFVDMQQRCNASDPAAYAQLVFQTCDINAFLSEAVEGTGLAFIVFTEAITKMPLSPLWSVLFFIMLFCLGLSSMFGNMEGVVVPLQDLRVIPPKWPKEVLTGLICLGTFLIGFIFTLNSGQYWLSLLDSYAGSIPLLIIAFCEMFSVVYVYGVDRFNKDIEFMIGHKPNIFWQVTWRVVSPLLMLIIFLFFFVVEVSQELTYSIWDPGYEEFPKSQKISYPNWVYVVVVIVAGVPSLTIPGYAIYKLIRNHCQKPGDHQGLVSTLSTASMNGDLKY
T1 sequence (Q9HBJ8 15-222 partner): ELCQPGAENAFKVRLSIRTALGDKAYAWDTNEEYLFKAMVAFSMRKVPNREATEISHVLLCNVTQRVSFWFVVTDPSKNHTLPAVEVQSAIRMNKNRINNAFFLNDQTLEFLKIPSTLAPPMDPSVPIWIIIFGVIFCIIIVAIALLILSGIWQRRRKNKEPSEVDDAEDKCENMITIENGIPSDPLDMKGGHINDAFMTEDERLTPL
Briefly: 13C6,15N-isoleucine uptake in CHO cells with doxycycline-inducible expression of human SLC6A19 and TMEM27, RapidFire mass spectrometry (Example B-2). The class given is cell-based. Particulars: read-out: SLC6A19_RapidFire Uptake Assay IC50. In short, it runs like this: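 Read-out is RapidFire mass-spec peak area of 13C6,15N-isoleucine taken up over 20 min at 37 °C, after 20 min compound pre-exposure in pH 7.2 HEPES-buffered saline. Cells: doxycycline-induced CHO co-expressing human SLC6A19 and TMEM27; compounds as duplicate 10-point 2-fold dilutions, positive control setting 0% activity.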

Assay [2] addresses T1, human SLC6A19 and TMEM27. The experiment in a line: Radiolabelled (3H) leucine uptake in CHO cells with doxycycline-inducible expression of human SLC6A19 and TMEM27 (Example B-1). The class given is cell-based. To be noted: CHO cells with doxycycline-inducible expression of human SLC6A19 and TMEM27, read-out: SLC6A19_Radioligand Uptake Assay IC50. In short, it runs like this: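 CHO cells were induced with doxycycline for 18 h at 37 °C, washed in HBSS, then exposed to compounds for 1 h: 8-point, 3-fold dilutions in duplicate, 0.5% DMSO final. Uptake measured by scintillation counting after 2 h shaking. Activity normalized with positive control as 0% and DMSO as 100%.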

SMILES strings stand for the structures. Where only a bound is given, the exact number is not on record here.

Turning to `Cc1cc(COc2cc3[nH]c(CNC(=O)C4(C)CC4)cc3cc2F)on1` [Compound 12, N-((5-fluoro-6-((3-methylisoxazol-5-yl)methoxy)-1H-indol-2-yl)methyl)-1-methylcyclopropane-1-carboxamide], the IC50 – broadly, the concentration at which inhibition is half-maximal – is 144 nM on human SLC6A19 and TMEM27 [1]; 79 nM on human SLC6A19 and TMEM27 [2].
In the same order, the values of `Cn1ncc(COc2cc3[nH]c(CNC(=O)N4CCC4)cc3cc2Cl)n1` [Compound 405, N-((5-chloro-6-((2-methyl-2H-1,2,3-triazol-4-yl)methoxy)-1H-indol-2-yl)methyl)azetidine-1-carboxamide] are 367 nM and 305 nM.
In the same order, the values of `CC1(C(=O)NCc2cc3cc(Cl)c(OCCC4CC(F)(F)C4)cc3[nH]2)CC1` [Compound 393, N-((5-chloro-6-(2-(3,3-difluorocyclobutyl)ethoxy)-1H-indol-2-yl)methyl)-1-methylcyclopropane-1-carboxamide] are 781 nM and 1460 nM.
In the same order, the values of `CC1(C(=O)NCc2cc3cc(C(F)(F)F)c(OCc4cscn4)cc3[nH]2)CC1` [Compound 60, 1-methyl-N-((6-(thiazol-4-ylmethoxy)-5-(trifluoromethyl)-1H-indol-2-yl)methyl)cyclopropane-1-carboxamide] are 71 nM and 254 nM.
`O=C(NCc1cc2cc(OC(F)(F)F)c(OCc3cscn3)cc2[nH]1)N1CCCC1` [Compound 415, N-((6-(thiazol-4-ylmethoxy)-5-(trifluoromethoxy)-1H-indol-2-yl)methyl)pyrrolidine-1-carboxamide]: the 50% inhibitory concentration (IC50) came to 93.4 nM at human SLC6A19 and TMEM27 [1]; 384 nM at human SLC6A19 and TMEM27 [2].
In the case of `Cc1cc(COc2cc3[nH]c(CNC(=O)C4(C)CC4)cc3cc2Cl)no1` [Compound 45, N-((5-chloro-6-((5-methylisoxazol-3-yl)methoxy)-1H-indol-2-yl)methyl)-1-methylcyclopropane-1-carboxamide], the IC50 on human SLC6A19 and TMEM27 [1] was determined as 75 nM; at human SLC6A19 and TMEM27 [2], 180 nM.
In the same order, the values of `O=C(NCc1cc2cc(Cl)c(OCc3cocn3)cc2[nH]1)N1CCC1` [Compound 403, N-((5-chloro-6-(oxazol-4-ylmethoxy)-1H-indol-2-yl)methyl)azetidine-1-carboxamide] are 519 nM and 407 nM.
In the same order, the values of `O=C(NCc1cc2cc(Cl)c(CCc3ccon3)cc2[nH]1)N1CCCC1` [Compound 412, N-((5-chloro-6-(2-(isoxazol-3-yl)ethyl)-1H-indol-2-yl)methyl)pyrrolidine-1-carboxamide] are 154 nM and 289 nM.
In the same order, the values of `Cc1coc(COc2cc3[nH]c(CNC(=O)N4CCCC4)cc3cc2Cl)n1` [Compound 426, N-((5-chloro-6-((4-methyloxazol-2-yl)methoxy)-1H-indol-2-yl)methyl)pyrrolidine-1-carboxamide] are 217 nM and 351 nM.
On to `CNC(=O)NCc1cc2cc(F)c(OCc3cscn3)cc2[nH]1` [Compound 214, 1-((5-fluoro-6-(thiazol-4-ylmethoxy)-1H-indol-2-yl)methyl)-3-methylurea], for which the IC50 is 193 nM at human SLC6A19 and TMEM27 [1]; 152 nM on human SLC6A19 and TMEM27 [2].
On to `O=C(NCc1cc2ccc(OCc3ccon3)cc2[nH]1)N1CCCCC1` [Compound 123, N-((6-(isoxazol-3-ylmethoxy)-1H-indol-2-yl)methyl)piperidine-1-carboxamide], for which the IC50 at human SLC6A19 and TMEM27 [1] was determined as 576 nM; on human SLC6A19 and TMEM27 [2] it was 340 nM.
In the same order, the values of `CC1(C(=O)NCc2cc3cc(Cl)c(OCc4cn5ccccc5n4)cc3[nH]2)CC1` [Compound 632, N-((5-chloro-6-(imidazo[1,2-a]pyridin-2-ylmethoxy)-1H-indol-2-yl)methyl)-1-methylcyclopropane-1-carboxamide] are > 2050 nM and 1470 nM.
For the compound `Cc1cc2cc(CNC(=O)N3CCC3)[nH]c2cc1OCc1ccon1` [Compound 532, N-((6-(isoxazol-3-ylmethoxy)-5-methyl-1H-indol-2-yl)methyl)azetidine-1-carboxamide], the IC50 stood at 632 nM at human SLC6A19 and TMEM27 [1]; 509 nM on human SLC6A19 and TMEM27 [2].
In the same order, the values of `Cn1ncc(COc2cc3[nH]c(CNC(=O)C4(C)CC4)cc3cc2F)n1` [Compound 496, N-((5-fluoro-6-((2-methyl-2H-1,2,3-triazol-4-yl)methoxy)-1H-indol-2-yl)methyl)-1-methylcyclopropane-1-carboxamide] are 424 nM and 430 nM.
As to `O=C(NCc1cc2cc(Cl)c(NCc3ccon3)cc2[nH]1)N1CCC1` [Compound 407, N-((5-chloro-6-((isoxazol-3-ylmethyl)amino)-1H-indol-2-yl)methyl)azetidine-1-carboxamide], the IC50 at human SLC6A19 and TMEM27 [1] was found to be 593 nM; at human SLC6A19 and TMEM27 [2] it was 619 nM.
In the same order, the values of `CC1(C(=O)NCc2cc3ccc(OCCc4ccon4)cc3[nH]2)CC1` [Compound 190, N-((6-(2-(isoxazol-3-yl)ethoxy)-1H-indol-2-yl)methyl)-1-methylcyclopropane-1-carboxamide] are 294 nM and 185 nM.
In the same order, the values of `O=C(NCc1cc2cc(F)c(OCc3ccon3)cc2[nH]1)C1CCC1` [Compound 431, N-((5-fluoro-6-(isoxazol-3-ylmethoxy)-1H-indol-2-yl)methyl)cyclobutanecarboxamide] are 343 nM and 244 nM.
In the same order, the values of `CC(C)C(=O)NCc1cc2cc(Cl)c(OCc3cscn3)cc2[nH]1` [Compound 145, N-((5-chloro-6-(thiazol-4-ylmethoxy)-1H-indol-2-yl)methyl)isobutyramide] are 43 nM and 73 nM.
Consider `CC1(C(=O)NCc2cc3ccc(OCc4c[nH]nn4)cc3[nH]2)CC1` [Compound 194, N-((6-((1H-1,2,3-triazol-4-yl)methoxy)-1H-indol-2-yl)methyl)-1-methylcyclopropane-1-carboxamide], for which the IC50 at human SLC6A19 and TMEM27 [1] was found to be 4940 nM; on human SLC6A19 and TMEM27 [2], 6780 nM.
Consider `CCC(=O)NCc1cc2cc(Cl)c(OCc3cc(C)no3)cc2[nH]1` [Compound 438, N-((5-chloro-6-((3-methylisoxazol-5-yl)methoxy)-1H-indol-2-yl)methyl)propionamide], for which the IC50 on human SLC6A19 and TMEM27 [1] came out at 26.8 nM; at human SLC6A19 and TMEM27 [2] it was 70.9 nM.
In the same order, the values of `CC1(C(=O)NCc2cc3cc(C4CC4)c(OCc4ccon4)cc3[nH]2)CC1` [Compound 342, N-((5-cyclopropyl-6-(isoxazol-3-ylmethoxy)-1H-indol-2-yl)methyl)-1-methylcyclopropane-1-carboxamide] are 215 nM and 258 nM.
`CC1(C(=O)NCc2cc3cc(Cl)c(OCc4cscn4)cc3[nH]2)CC1` [Compound 184, N-((5-chloro-6-(thiazol-4-ylmethoxy)-1H-indol-2-yl)methyl)-1-methylcyclopropane-1-carboxamide]: the IC50 at human SLC6A19 and TMEM27 [1] was 59 nM; at human SLC6A19 and TMEM27 [2], 144 nM.
Take `O=C(NCc1cc2cc(Cl)c(OCc3cscn3)cc2[nH]1)C1CC(F)(F)C1` [Compound 495, N-((5-chloro-6-(thiazol-4-ylmethoxy)-1H-indol-2-yl)methyl)-3,3-difluorocyclobutane-1-carboxamide]: the IC50 at human SLC6A19 and TMEM27 [1] amounted to 240 nM; on human SLC6A19 and TMEM27 [2] it was 397 nM.
For `Cc1nc(COc2cc3[nH]c(CNC(=O)N4CCC4)cc3cc2Cl)co1` [Compound 408, N-((5-chloro-6-((2-methyloxazol-4-yl)methoxy)-1H-indol-2-yl)methyl)azetidine-1-carboxamide], the IC50 at human SLC6A19 and TMEM27 [1] was determined as 498 nM; on human SLC6A19 and TMEM27 [2], 478 nM.
